From patent US7923204B2, “Forward mutation assay based on 5-fluorouracil resistance” (priority 2003, dated 2011)
Counter-ions that a name gives are not always drawn. Like-named read-outs stand apart in the source and are kept apart here. Marks after values point to notes of the source that are not given here.

How the values were obtained:
[1] = test system: Salmonella; details: cited from earlier work
[2] = test system: chromosome aberrations; details: cited from earlier work
[3] = test system: FU100; details: for response in the 5-FU Assay (in words): text and figure legend (FIG. 6), with or without S9
Description: Briefly, in order to practice the disclosed mutation assay one-ml aliquots of exponentially growing bacteria are exposed to the test agent for two hours in the presence and absence of a metabolic activation system, such as a mammalian (i.e., rat, hamster or human) liver homogenate (S9-fraction or liver microsomal enzymes). The aliquots are then diluted, allowed to grow for 3 hours, and assessed for treatment-related toxicity/inhibition by optical density. The cultures are subsequently diluted a second time and grown overnight to permit full recovery from toxicity and to allow expression of the FU^R phenotype. Samples of the cultures are then plated in 384-well microtiter dishes in the presence of 2 μg/ml 5-FU and the pH-sensitive indicator bromcresol purple. Three days later positive wells containing FU^R colonies are detected by their yellow color and enumerated. Treated cultures are then compared to control plates to determine genotoxic activity.
For each mutation experiment, two frozen 1-ml aliquots of FU100 were quickly thawed in a 37° C. water bath, pelleted by centrifugation, washed to remove the DMSO, and suspended in 35 mL of MinE medium. The culture was shaken for approximately 1 hour at 37° C. until the optical density at 600 nm (OD600) reached the target density of 0.3. A 16-ml aliquot of culture was added to each of two 50-ml tubes containing 3.6 ml of a NADPH-generating system (5.6 mM glucose-6-phosphate, 4.5 mM NADP+, 5 mM sucrose, 110 mM Na2HPO4, 37 mM KCl, and 9 mM MgCl2) and either 0.4 ml rat liver S-9 or an equal volume of sodium phosphate buffer. Aliquots of these mixtures were distributed into three 12-well cluster dishes (one for exposure with S-9, one for exposure without S-9, one for controls with and without S-9), and exposed to test compounds as 1-ml aliquots for 2 hour as outlined in FIG. 1.
Following treatment, the 1-ml aliquots were transferred into 9 ml of warm MinE medium in a 50 ml tube and incubated at 37° C. on a rotary wheel for 3 hours. Next, 20 ml of medium was added to each culture tube and 0.25 ml aliquots were transferred to a 96-well plate for OD600 measurements to assess toxicity (OD Day 1). […] Bulk cultures were then incubated overnight in the dark at 30° C. to permit recovery from toxicity and to allow time for the test cells to express the FU^R phenotype.
The next day, OD600 was again assessed to adjust cell number plated on 5-FU plates (OD Day 2; 100 μl of the culture diluted with 150 μl MinE medium for OD600 measurements). For plating, a 35 μl aliquot of each culture was added to 31.4 mL of MinE medium with 2 μg/ml of 5-FU and 10 μg/ml of bromcresol purple. The mixture was then dispersed into a 384-well plate (75 μl/well) and placed at 37° C. for 3 days in a humidified incubator.
The data obtained for both survival (OD day 1), relative number of cells plated (OD day 2), and number of positive wells were imported into an Excel template.
Table 8 summarizes the criteria for positive result in 5-FU assay using the FU100 tester strain described and claimed herein. […] A positive compound was defined when two or more doses met the aforementioned criteria.

[4] = test system: sister chromatid exchange; details: cited from earlier work
[5] = test system: FU100
[6] = in the presence of S9 activation (+), approximate, first dose with greater than 50% survival by optical density on Day 1
[7] = without S9 activation (−), approximate, first dose with greater than 50% survival by optical density on Day 1
[8] = NTP Results Report 12 Aug. 2002 or cited reference (footnotes f, g, i, j)
[9] = in the presence of S9 activation (+), FU100, 2 h exposure
[10] = in the presence of S9 activation (+), lowest dose tested giving a positive response
[11] = without S9 activation (−), FU100, 2 h exposure
[12] = without S9 activation (−), lowest dose tested giving a positive response
[13] = NTP Results Report 12 Aug. 2002

| Structure (SMILES) | LD50 [5, 6] | LD50 [5, 7] | NTP Results: SA = Salmonella [1, 8] | Results (5-FU assay) [3, 9] | Lowest Positive Dose [3, 10] | Results (5-FU assay) [3, 11] | Lowest Positive Dose [3, 12] | NTP Results: SC = sister chromatid exchange [4, 13] | further results |
| --- | --- | --- | --- | --- | --- | --- | --- | --- | --- |
| CC(O)CCl (stereo not shown) [1-Chloro-2-propanol] |  |  |  |  |  |  |  |  | NTP Results: SA = Salmonella [1]: (SA+, CA+, SC+); NTP Results: CA = chromosome aberrations [2]: (SA+, CA+, SC+); Lowest Positive Dose [3]: 2800 µg/mL; Results (5-FU assay) [3]: Pos^w; Results (5-FU assay) ([3]; s9): Neg; NTP Results: SC = sister chromatid exchange [4]: (SA+, CA+, SC+) |
| Nc1ccc2cc3ccccc3cc2c1 [2-Aminoanthracene] | >2 µg/mL | >10 µg/mL | + | Pos | 0.2 µg/mL | Pos | 0.6 µg/mL | + |  |
| O=[N+]([O-])c1ccc2c(c1)Cc1ccccc1-2 [2-Nitrofluorene] | >2 µg/mL | >1 µg/mL |  | Pos | 0.6 µg/mL | Pos | 0.02 µg/mL |  |  |
| O=[N+]([O-])c1cc[n+]([O-])c2ccccc12 [4-Nitroquinoline N-oxide] | >0.5 µg/mL | >0.5 µg/mL |  |  |  |  |  |  |  |
| Cl.Nc1c2ccccc2nc2ccccc12.O [9-Aminoacridine•HCl•H2O] | >9 µg/mL | >9 µg/mL | (SA+, CA+, SC+) | Pos | 16 µg/mL | Pos | 16 µg/mL | (SA+, CA+, SC+) | NTP Results: CA = chromosome aberrations [2, 13]: (SA+, CA+, SC+); response in the 5-FU Assay (in words) [3]: positive compounds in toxic concentrations |
| Cc1ccc2cc3c(ccc4ccccc43)c3c2c1CC3 [20-Methylcholanthrene] | >50 µg/mL | >50 µg/mL | + | Pos | 0.2 µg/mL | Pos | 5 µg/mL | + | NTP Results: CA = chromosome aberrations [2, 13]: − |
| O=Cc1ccccc1 [Benzaldehyde] | >150 µg/mL | >150 µg/mL |  | Neg |  | Neg |  |  |  |
| c1ccc2c(c1)cc1ccc3cccc4ccc2c1c34 [Benzo[a]pyrene] | >20 µg/mL | >20 µg/mL |  |  |  |  |  |  |  |
| OCc1ccccc1 [Benzyl Alcohol] | >500 µg/mL | >900 µg/mL | − | Neg |  | Neg |  | +^w | NTP Results: CA = chromosome aberrations [2, 13]: + |
| O=c1ccc2ccccc2o1 [Coumarin] | >150 µg/mL | >900 µg/mL |  | Pos | 50 µg/mL | Neg |  |  |  |
| CC(C)(OOC(C)(C)c1ccccc1)c1ccccc1 [Dicumyl peroxide] | >5000 µg/mL | >5000 µg/mL | (SA−) | Neg |  | Neg |  |  |  |
| C[S+](C)[O-] [Dimethyl Sulfoxide] | >5000 µg/mL | >5000 µg/mL | (SA−, CA−, SC−) | Neg |  | Neg |  | (SA−, CA−, SC−) | NTP Results: CA = chromosome aberrations [2, 13]: (SA−, CA−, SC−) |
| COc1ccc2nc3cc(Cl)ccc3c(NCCCNCCCl)c2c1 [ICR-191] | >10 µg/mL | >3 µg/mL | (SA+) | Pos | 3.2 µg/mL | Pos | 0.2 µg/mL |  | response in the 5-FU Assay (in words) [3]: positive compounds in non-toxic concentrations |
| C[C@H](CCC(=O)O)[C@H]1CC[C@H]2[C@@H]3CC[C@@H]4C[C@H](O)CC[C@]4(C)[C@H]3CC[C@]12C [Lithocholic Acid] | >2000 µg/mL | >2000 µg/mL |  | Neg |  | Neg |  |  |  |
| COS(C)(=O)=O [Methyl Methanesulfonate] | >100 µg/mL | >100 µg/mL | (SA+) | Pos | 10 µg/mL | Pos | 0.6 µg/mL |  | plating efficiency of FU^R mutants in treated culture at the end of day 1 ([3]; before overnight grow back was introduced): significantly suppressed; response in the 5-FU Assay (in words) [3]: positive compounds in non-toxic concentrations |
| CN(N=O)C(N)=O [N-Nitroso-N-methylurea] | >90 µg/mL | >90 µg/mL | (SA+) | Pos | 5.0 µg/mL | Pos | 5.0 µg/mL |  |  |
| CN(C)N=O [N-Nitrosodimethylamine] | >2000 µg/mL | >2000 µg/mL | (SA+, CA+, SC+) | Pos | 360 µg/mL | Neg |  | (SA+, CA+, SC+) | NTP Results: CA = chromosome aberrations [2, 13]: (SA+, CA+, SC+) |
| CCC1(c2ccccc2)C(=O)NC(=O)NC1=O [Phenobarbital] | >500 µg/mL | >500 µg/mL |  | Pos^w | 1500 µg/mL | Pos^w | 2800 µg/mL |  |  |
| Nc1ccc2cc3ccc(N)cc3nc2c1 [Proflavine HCl] | >10 µg/mL | >10 µg/mL | (SA+) | Pos | 0.1 µg/mL | Pos^w | 16 µg/mL |  |  |
| O=C1NS(=O)(=O)c2ccccc21 [Saccharin] |  |  |  |  |  |  |  |  | LD50 ([5]; Salmonella typhimurium): >5000 µg/mL; NTP Results: SA = Salmonella [1]: (SA−); Results (5-FU assay) [3]: Neg |
| CCCCCCCCCCCCOS(=O)(=O)[O-].[Na+] [Sodium Dodecyl Sulfate] | >35 µg/mL | >20 µg/mL |  | Neg |  | Neg |  |  |  |
| CC/C(=C(\c1ccccc1)c1ccc(OCCN(C)C)cc1)c1ccccc1 [Tamoxifen] | >15 µg/mL | >3 µg/mL |  |  |  |  |  |  | Results (5-FU assay) [3]: Neg |
| CN(C)[C@@H]1C(O)=C(C(N)=O)C(=O)[C@@]2(O)C(O)=C3C(=O)c4c(O)cccc4[C@@](C)(O)[C@H]3C[C@@H]12 [Tetracycline HCl] | >0.1 µg/mL | >0.1 µg/mL | − |  |  |  |  | − | NTP Results: CA = chromosome aberrations [2, 13]: −; Results (5-FU assay) [3]: Neg |
| Cc1cccc(Nc2cc(Cl)nc(SCC(=O)O)n2)c1C [Wyeth 14,643] | >900 µg/mL | >900 µg/mL | (SA−) | Neg |  | Neg |  |  |  |
| O=[N+]([O-])c1ccc(O)cc1 [p-Nitrophenol] | >50 µg/mL | >50 µg/mL | − | Neg |  | Neg |  | − | NTP Results: CA = chromosome aberrations [2, 13]: + |
